Assay results reported in publication PMC11831560, “Development of the Pyrido[2,3-d]pyrimidin-7(8H)-one Scaffold toward Potent and Selective NUAK1 Inhibitors” (ACS Medicinal Chemistry Letters, 2025).

Experiments:
Experiment in all cases: Kinase panel radiometric filter binding (33P-ATP)
Assay type in all cases: biochemical
Parameters in all cases: dose or concentration left out as unconfirmed
DYRK1A = DYRK1A (Homo sapiens, UniProt Q13627)
Outline: (§1)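 140-kinase general panel; radiometric filter binding, 33P-ATP; test compound 1 µM; % activity remaining ± s.d.; pIC50 determined only if <20% activity.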

DDR2 = DDR2 (Homo sapiens, UniProt Q16832)
Outline: as §1

p38a MAPK = p38a MAPK (Homo sapiens, UniProt Q16539)
Outline: as §1

SmMLCK = SmMLCK (Homo sapiens, UniProt Q15746)
Outline: as §1

MNK1 = MNK1 (Homo sapiens, UniProt Q9BUB5)
Outline: as §1

BTK = BTK (Homo sapiens, UniProt Q06187)
Outline: as §1

PDK1 = PDK1 (Homo sapiens, UniProt O15530)
Outline: as §1

PKA = PKA (Homo sapiens, UniProt P17612)
Outline: as §1

TTBK2 = TTBK2 (Homo sapiens, UniProt Q6IQ55)
Outline: as §1

EPH-B3 = EPH-B3 (Homo sapiens, UniProt P54753)
Outline: as §1

CAMKKb = CAMKKb (Homo sapiens, UniProt Q96RR4)
Outline: as §1

PIM2 = PIM2 (Homo sapiens, UniProt Q9P1W9)
Outline: as §1

CDK2-Cyclin A = CDK2-Cyclin A (Homo sapiens, UniProt P24941)
Outline: as §1

MARK3 = biological target: T1, MARK3 (Homo sapiens, UniProt P27448)
T1 construct: purchased MRC PPU
Outline: as §1

DYRK2 = DYRK2 (Homo sapiens, UniProt Q92630)
Outline: as §1

TTBK1 = TTBK1 (Homo sapiens, UniProt Q5TCY1)
Outline: as §1

PAK2 = PAK2 (Homo sapiens, UniProt Q13177)
Outline: as §1

OSR1 = OSR1 (Homo sapiens, UniProt O95747)
Outline: as §1

PAK4 = PAK4 (Homo sapiens, UniProt O96013)
Outline: as §1

PRAK = PRAK (Homo sapiens, UniProt Q8IW41)
Outline: as §1

PDGFRA = PDGFRA (Homo sapiens, UniProt P16234)
Outline: as §1

IKKb = IKKb (Homo sapiens, UniProt O14920)
Outline: as §1

RSK2 = RSK2 (Homo sapiens, UniProt P51812)
Outline: as §1

MST4 = MST4 (Homo sapiens, UniProt Q9P289)
Outline: as §1

JNK1 = JNK1 (Homo sapiens, UniProt P45983)
Outline: as §1

LKB1 = LKB1 (Homo sapiens, UniProt Q15831)
Outline: as §1

WNK1 = WNK1 (Homo sapiens, UniProt Q9H4A3)
Outline: as §1

EPH-B2 = EPH-B2 (Homo sapiens, UniProt P29323)
Outline: as §1

PKCa = PKCa (Homo sapiens, UniProt P17252)
Outline: as §1

S6K1 = S6K1 (Homo sapiens, UniProt P23443)
Outline: as §1

p38b MAPK = p38b MAPK (Homo sapiens, UniProt Q15759)
Outline: as §1

GSK3b = GSK3b (Homo sapiens, UniProt P49841)
Outline: as §1

MINK1 = MINK1 (Homo sapiens, UniProt Q8N4C8)
Outline: as §1

TIE2 = TIE2 (Homo sapiens, UniProt Q02763)
Outline: as §1

IRAK4 = IRAK4 (Homo sapiens, UniProt Q9NWZ3)
Outline: as §1

Sequence of p38a MAPK (Q16539 whole entry): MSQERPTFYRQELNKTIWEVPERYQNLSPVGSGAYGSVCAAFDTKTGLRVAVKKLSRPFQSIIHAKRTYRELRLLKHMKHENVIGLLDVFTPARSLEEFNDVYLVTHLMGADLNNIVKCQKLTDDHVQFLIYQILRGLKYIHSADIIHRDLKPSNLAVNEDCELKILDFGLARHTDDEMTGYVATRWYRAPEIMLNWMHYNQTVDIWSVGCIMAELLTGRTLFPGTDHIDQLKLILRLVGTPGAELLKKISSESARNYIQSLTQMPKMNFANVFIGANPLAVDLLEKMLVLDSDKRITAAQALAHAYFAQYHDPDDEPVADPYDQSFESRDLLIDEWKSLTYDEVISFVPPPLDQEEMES
Sequence of JNK1 (P45983 whole entry): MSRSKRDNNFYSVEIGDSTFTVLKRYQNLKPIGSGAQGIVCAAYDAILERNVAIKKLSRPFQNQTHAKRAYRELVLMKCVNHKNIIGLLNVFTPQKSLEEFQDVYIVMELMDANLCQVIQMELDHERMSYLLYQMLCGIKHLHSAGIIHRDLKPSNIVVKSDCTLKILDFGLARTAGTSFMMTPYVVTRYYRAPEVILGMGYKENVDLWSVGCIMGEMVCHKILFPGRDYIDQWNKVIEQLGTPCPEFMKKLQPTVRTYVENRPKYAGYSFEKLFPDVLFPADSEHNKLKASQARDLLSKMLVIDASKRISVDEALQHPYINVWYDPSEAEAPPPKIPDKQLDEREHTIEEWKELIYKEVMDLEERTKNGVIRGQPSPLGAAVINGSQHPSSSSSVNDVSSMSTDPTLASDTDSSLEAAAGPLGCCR
Sequence of MST4 (Q9P289 whole entry): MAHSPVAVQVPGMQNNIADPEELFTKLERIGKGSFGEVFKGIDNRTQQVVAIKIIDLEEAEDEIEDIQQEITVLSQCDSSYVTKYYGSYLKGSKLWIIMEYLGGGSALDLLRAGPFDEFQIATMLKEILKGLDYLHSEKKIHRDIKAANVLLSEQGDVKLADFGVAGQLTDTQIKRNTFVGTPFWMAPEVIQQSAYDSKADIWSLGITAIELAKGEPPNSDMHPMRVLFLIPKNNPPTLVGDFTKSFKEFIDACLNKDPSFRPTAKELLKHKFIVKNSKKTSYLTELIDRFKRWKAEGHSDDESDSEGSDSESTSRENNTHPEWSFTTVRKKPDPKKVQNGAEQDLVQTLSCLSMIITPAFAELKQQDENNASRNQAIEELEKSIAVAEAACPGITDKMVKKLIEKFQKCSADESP
Sequence of IRAK4 (Q9NWZ3 whole entry): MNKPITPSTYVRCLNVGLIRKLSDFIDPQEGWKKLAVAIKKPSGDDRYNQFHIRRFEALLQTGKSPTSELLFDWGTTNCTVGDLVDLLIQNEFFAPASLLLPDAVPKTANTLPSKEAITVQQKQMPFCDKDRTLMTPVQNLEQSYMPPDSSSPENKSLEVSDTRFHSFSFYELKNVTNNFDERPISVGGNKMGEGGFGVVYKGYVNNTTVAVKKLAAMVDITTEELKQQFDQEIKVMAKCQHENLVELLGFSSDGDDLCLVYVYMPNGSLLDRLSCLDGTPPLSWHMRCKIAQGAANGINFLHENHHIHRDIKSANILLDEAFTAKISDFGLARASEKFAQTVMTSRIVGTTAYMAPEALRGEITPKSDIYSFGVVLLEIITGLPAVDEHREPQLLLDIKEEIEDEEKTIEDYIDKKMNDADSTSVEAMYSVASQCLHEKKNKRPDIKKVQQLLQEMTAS
Sequence of DYRK2 (Q92630 whole entry): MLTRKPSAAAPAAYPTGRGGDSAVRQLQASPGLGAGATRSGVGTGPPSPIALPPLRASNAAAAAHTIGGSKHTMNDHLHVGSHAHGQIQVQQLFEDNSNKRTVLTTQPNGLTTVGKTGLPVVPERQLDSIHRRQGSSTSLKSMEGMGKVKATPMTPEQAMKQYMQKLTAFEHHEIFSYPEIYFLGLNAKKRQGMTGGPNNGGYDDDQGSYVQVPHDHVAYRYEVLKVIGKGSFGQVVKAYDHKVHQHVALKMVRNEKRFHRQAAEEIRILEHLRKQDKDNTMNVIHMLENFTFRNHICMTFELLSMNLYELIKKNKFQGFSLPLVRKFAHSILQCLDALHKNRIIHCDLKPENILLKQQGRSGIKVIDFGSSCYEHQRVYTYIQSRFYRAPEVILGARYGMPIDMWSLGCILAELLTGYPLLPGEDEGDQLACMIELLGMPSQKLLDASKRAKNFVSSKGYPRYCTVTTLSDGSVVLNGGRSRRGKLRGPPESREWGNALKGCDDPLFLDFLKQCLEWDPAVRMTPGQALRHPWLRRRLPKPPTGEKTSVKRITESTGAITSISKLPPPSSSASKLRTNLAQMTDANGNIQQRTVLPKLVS
Sequence of TIE2 (Q02763 23-1124): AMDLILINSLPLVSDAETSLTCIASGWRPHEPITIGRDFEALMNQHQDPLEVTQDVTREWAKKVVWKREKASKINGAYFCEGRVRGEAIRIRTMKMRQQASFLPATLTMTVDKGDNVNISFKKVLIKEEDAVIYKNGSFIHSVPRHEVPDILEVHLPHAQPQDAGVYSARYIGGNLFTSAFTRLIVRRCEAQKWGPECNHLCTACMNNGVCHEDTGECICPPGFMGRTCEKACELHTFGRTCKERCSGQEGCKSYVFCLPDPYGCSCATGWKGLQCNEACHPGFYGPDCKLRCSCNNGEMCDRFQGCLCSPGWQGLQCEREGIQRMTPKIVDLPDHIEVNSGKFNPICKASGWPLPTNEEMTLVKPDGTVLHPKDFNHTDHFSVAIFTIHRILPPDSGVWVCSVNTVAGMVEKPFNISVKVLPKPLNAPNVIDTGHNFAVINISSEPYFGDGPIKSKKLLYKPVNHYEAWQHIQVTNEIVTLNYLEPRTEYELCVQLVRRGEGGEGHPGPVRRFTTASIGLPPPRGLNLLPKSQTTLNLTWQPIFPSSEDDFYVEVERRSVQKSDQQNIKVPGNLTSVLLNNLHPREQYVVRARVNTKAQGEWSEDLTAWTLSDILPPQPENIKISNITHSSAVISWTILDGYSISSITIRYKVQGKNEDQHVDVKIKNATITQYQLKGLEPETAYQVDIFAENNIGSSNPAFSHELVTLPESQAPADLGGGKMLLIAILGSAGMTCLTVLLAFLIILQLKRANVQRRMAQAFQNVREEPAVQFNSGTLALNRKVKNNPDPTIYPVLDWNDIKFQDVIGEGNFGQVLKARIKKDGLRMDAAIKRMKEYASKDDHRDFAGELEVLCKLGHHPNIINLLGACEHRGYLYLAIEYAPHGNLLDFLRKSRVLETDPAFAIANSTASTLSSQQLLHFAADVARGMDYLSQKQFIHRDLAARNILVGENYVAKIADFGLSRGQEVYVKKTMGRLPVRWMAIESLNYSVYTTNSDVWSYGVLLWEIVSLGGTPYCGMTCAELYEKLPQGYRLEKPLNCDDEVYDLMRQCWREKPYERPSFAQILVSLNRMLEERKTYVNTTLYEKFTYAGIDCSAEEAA
Sequence of MNK1 (Q9BUB5 whole entry): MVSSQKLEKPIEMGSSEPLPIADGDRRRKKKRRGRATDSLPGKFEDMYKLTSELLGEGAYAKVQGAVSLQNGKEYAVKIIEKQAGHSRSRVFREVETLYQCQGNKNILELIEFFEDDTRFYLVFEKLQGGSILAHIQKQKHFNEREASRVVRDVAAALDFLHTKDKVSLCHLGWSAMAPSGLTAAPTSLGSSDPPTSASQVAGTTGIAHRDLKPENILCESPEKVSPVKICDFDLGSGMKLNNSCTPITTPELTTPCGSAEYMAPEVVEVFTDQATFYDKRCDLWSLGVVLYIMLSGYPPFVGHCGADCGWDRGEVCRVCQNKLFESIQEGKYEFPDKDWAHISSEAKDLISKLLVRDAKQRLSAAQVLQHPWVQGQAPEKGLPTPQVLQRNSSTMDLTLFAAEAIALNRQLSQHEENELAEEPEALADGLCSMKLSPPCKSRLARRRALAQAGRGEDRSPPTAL
Sequence of GSK3b (P49841 whole entry): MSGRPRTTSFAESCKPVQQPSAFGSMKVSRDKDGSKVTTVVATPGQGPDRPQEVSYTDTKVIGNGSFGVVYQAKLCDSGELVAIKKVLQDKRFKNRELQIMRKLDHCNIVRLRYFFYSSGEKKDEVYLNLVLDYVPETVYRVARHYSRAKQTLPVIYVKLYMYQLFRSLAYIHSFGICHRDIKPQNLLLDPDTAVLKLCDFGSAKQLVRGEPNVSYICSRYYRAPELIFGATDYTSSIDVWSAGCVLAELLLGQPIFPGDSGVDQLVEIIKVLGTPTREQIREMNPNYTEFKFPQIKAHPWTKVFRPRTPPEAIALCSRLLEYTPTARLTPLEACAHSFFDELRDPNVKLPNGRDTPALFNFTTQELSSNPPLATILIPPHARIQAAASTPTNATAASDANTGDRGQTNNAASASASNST

Row | Structure (SMILES) | % activity remaining (DYRK1A) [%] | % activity remaining (DDR2) [%] | % activity remaining (p38a MAPK) [%] | % activity remaining (SmMLCK) [%] | % activity remaining (MNK1) [%] | % activity remaining (BTK) [%] | % activity remaining (PDK1) [%] | % activity remaining (PKA) [%] | % activity remaining (TTBK2) [%] | % activity remaining (EPH-B3) [%] | % activity remaining (CAMKKb) [%] | % activity remaining (PIM2) [%] | % activity remaining (CDK2-Cyclin A) [%] | % activity remaining (MARK3) [%] | % activity remaining (DYRK2) [%] | % activity remaining (TTBK1) [%] | % activity remaining (PAK2) [%] | % activity remaining (OSR1) [%] | % activity remaining (PAK4) [%] | % activity remaining (PRAK) [%] | other results
1 | Cc1cc(=O)n(C2CCCC2)c2nc(Nc3ccc(N4CC5CC(C4)N5C)cc3)ncc12 [Compound 9] | 78 | 39 | 92 | 61 | 96 | 91 | 90 | 84 | 97 | 95 | 86 | 99 | 59 | 35 | 103 | 92 | 97 | 67 | 50 | 99 | % activity remaining (PDGFRA): 57%; % activity remaining (IKKb): 93%; % activity remaining (RSK2): 49%; % activity remaining (MST4): 61%; % activity remaining (JNK1): 47%; % activity remaining (LKB1): 104%; % activity remaining (WNK1): 103%; % activity remaining (EPH-B2): 60%; % activity remaining (PKCa): 86%; % activity remaining (S6K1): 85%; % activity remaining (p38b MAPK): 91%; % activity remaining (GSK3b): 101%; % activity remaining (MINK1): 30%; % activity remaining (TIE2): 115%; % activity remaining (IRAK4): 100%
2 | CN1C2CC1CN(c1ccc(Nc3ncc4ccn(CC5CCOCC5)c4n3)cc1)C2 [Compound 24] | 141 | 82 | 93 | 102 | 72 | 82 | 95 | 90 | 96 | 77 | 43 | 111 | 79 | 104 | 103 | 103 | 107 | 70 | 89 | 83 | % activity remaining (PDGFRA): 90%; % activity remaining (IKKb): 103%; % activity remaining (RSK2): 73%; % activity remaining (MST4): 92%; % activity remaining (JNK1): 97%; % activity remaining (LKB1): 100%; % activity remaining (WNK1): 84%; % activity remaining (EPH-B2): 82%; % activity remaining (PKCa): 96%; % activity remaining (S6K1): 78%; % activity remaining (p38b MAPK): 108%; % activity remaining (GSK3b): 69%; % activity remaining (MINK1): 79%; % activity remaining (TIE2): 62%; % activity remaining (IRAK4): 71%
